Where two headings read alike, the source gives them in different places.
Molecular target: eel acetylcholinesterase (AChE) (Electrophorus electricus, UniProt O42275)
Experiment: Eel AChE fluorescence assay (AMPLEX Red kit)
Format: biochemical
Protocol: Enzymatic reactions consisted of 50 μM acetylcholine, 200 μM AIVIPLEX™ Red reagent, 1 U/mL horseradish peroxidase, 0.1 U/mL choline oxidase and 0.096 U/mL acetylcholinesterase, with 30 1% DMSO. […] Control reactions lacking acetylcholinesterase but containing 5 μM H2O2 in presence of compounds were analyzed at the same wavelength to exclude compounds that display assay interference. Dose-response curves were performed in duplicate.

[1] = eel AChE activity, at 20 μM, read-out: Percentage inhibition

Sequence of eel acetylcholinesterase (AChE) (O42275 24-633): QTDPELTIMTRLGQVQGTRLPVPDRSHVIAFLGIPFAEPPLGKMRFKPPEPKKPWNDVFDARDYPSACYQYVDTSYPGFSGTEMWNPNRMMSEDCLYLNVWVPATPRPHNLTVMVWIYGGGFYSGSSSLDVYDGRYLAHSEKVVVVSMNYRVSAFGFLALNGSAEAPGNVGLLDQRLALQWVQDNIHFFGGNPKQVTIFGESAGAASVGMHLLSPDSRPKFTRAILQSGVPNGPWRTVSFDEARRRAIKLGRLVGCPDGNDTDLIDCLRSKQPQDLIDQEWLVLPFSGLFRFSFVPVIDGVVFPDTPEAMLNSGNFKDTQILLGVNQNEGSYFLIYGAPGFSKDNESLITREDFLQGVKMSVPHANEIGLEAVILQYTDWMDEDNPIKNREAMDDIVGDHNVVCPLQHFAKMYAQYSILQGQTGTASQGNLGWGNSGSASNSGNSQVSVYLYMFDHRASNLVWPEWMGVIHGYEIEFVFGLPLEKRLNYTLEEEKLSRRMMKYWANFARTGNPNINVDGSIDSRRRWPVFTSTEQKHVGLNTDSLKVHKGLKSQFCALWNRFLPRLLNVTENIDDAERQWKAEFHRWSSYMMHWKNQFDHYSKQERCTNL

O=C1c2ccccc2-c2ccccc21 [fluorenone]
inhibition at 20 µM [1]: 3%

O=C1c2cc(O)ccc2-c2ccc(O)cc21 [2,7-dihydroxy-9H-fluoren-9-one]
inhibition at 20 µM [1]: 30% | inhibition of AChE activity (in words) (eel AChE, 20 μM): neither fluorenone, nor the close derivative 2,7-dihydroxy-9H-fluoren-9-one inhibit AChE activity

COc1ccc2nc3cc(Cl)ccc3c(Nc3cc(CN4CCCC4)c(O)c(CN4CCCC4)c3)c2n1 [pyronaridine]
inhibition at 20 µM [1]: 53.6% | inhibition at 20 µM (read-out: inhibition of enzyme activity compared to DMSO control (screen)): > 50%

From patent publication US20230330045A1 (priority 2020, published 2023)
